In ChEMBL document CHEMBL1240477, “Discovery of novel CDK1 inhibitors by combining pharmacophore modeling, QSAR analysis and in silico screening followed by in vitro bioassay” (Eur J Med Chem, 2010) one finds IC50 data, which are given here for 11 compounds.

Sequence of Cyclin-dependent kinase 1 (P06493 whole entry): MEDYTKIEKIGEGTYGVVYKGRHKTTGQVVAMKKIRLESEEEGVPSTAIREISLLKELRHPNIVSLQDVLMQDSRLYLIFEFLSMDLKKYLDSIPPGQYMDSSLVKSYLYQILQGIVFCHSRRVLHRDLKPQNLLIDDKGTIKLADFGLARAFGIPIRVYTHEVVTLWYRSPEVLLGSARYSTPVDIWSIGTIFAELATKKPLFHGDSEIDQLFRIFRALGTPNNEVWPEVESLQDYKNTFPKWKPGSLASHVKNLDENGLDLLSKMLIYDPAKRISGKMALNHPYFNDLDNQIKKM

The test concerns the target Cyclin-dependent kinase 1 (Homo sapiens, UniProt P06493). Put plainly: Inhibition of CDK1.
A word on the IC50: it is the concentration needed to halve the response being measured. Read a low IC50 as inhibition by little substance. Turning to `COc1cc(OC)nc(NC(=O)NS(=O)(=O)c2cc(NC=O)ccc2C(=O)N(C)C)n1` [FORAMSULFURON], the half-inhibitory concentration (IC50) came out at 3600 nM.

`O=c1c(O)c(-c2ccc(O)c(O)c2)oc2cc(O)cc(O)c12` [QUERCETIN] displayed an IC50 of 450 nM. This IC50 is about 8-fold lower than that of the compound before.

The compound `C[C@H](N[C@@H](C)COc1ccccc1)[C@@H](O)c1ccc(O)cc1` returned an IC50 of 2900 nM.

In the case of `O=Cc1cc(CCCCCCc2ccc(O)c(C=O)c2)ccc1O`, the IC50 amounted to 4900 nM.

`COC(=O)c1cc(NC(C)=O)ccc1S(=O)(=O)c1ccc(NC(C)=O)cc1C(=O)OC` yielded an IC50 of 910 nM.

In turn, `Cc1cc2[nH]c(=S)n([C@@H]3O[C@H](CO)[C@@H](O)[C@H]3O)c2cc1C` gave an IC50 of 2100 nM.

`OCCSC(=S)Nc1ccc(Cl)c(Cl)c1` displayed an IC50 of 2500 nM.

The compound `OCCN(CCO)Cc1cc(Cl)c2cccnc2c1O` yielded an IC50 of 3230 nM.

On to `OCCNC(=S)Nc1ccc(C(F)(F)F)cc1`, for which the IC50 was 1400 nM.

`O=C(NCCCO)c1cc(Cl)ccc1O` registered an IC50 of 2530 nM.

Compound `CCN(CCO)CCCNc1ccnc2cc(Cl)ccc12` returned an IC50 of 830 nM.
